Three compounds from ChEMBL document CHEMBL1135253, “Formation of thomasidioic acid from dehydrosinapinic acid dilactone under neutral conditions, and a remaining inhibitory activity against peroxynitrite-mediated protein nitration” (Bioorg Med Chem Lett, 2002) can be followed below.

A short description of test [1]: Inhibitory activity of compound was tested against peroxinitrite of collagen type I with concentration 50 uM of each sample was treated with 1.0 mM peroxynitrite.
Test [2] is described as follows: Inhibitory activity of compound was tested against peroxinitrite in collagen type I with concentration 50 uM of each sample was treated with 1.0 mM peroxynitrite.
Test [3] in a line: Inhibitory activity of compound was tested against peroxinitrite in collagen type I at concentration 100 uM of each sample was treated with 1.0 mM peroxynitrite.

`COc1cc([C@H]2c3c(cc(OC)c(O)c3OC)C=C(C(=O)O)[C@@H]2C(=O)O)cc(OC)c1O` returned an Activity in test [1] of 0.7.
Compound `COc1cc(/C=C(C(=O)O)\C(=C/c2cc(OC)c(O)c(OC)c2)C(=O)O)cc(OC)c1O` returned an Activity in test [2] of 0.25.
Turning to `COc1cc(/C=C/C(=O)O)cc(OC)c1O`, the values for the Activity in test [3] and in test [2] were 0.3 and 1, respectively.
